Reference: the NIST ThermoML archive (doi:10.1021/je700210n)

Assay: xn = mol fraction of the nth substance listed
Settings: Liquid, determined from the liquid sample's weight and the volume of sample.

N#N [nitrogen] + C
Settings | mass density [kg/m3]
129.98 K, x1 = 0.2952 | 648.5
129.99 K, x1 = 0.4716 | 618.7
149.93 K, x1 = 0.5938 | 413.6
149.96 K, x1 = 0.4151 | 527.4
149.97 K, x1 = 0.1389 | 602.8
149.97 K, x1 = 0.3339 | 555.8
150 K, x1 = 0.5608 | 436
150.01 K, x1 = 0.504 | 474.9
159.36 K, x1 = 0.3238 | 492
159.96 K, x1 = 0.4275 | 427.8
159.98 K, x1 = 0.0224 | 577
159.99 K, x1 = 0.2659 | 511
160 K, x1 = 0.4156 | 432.5
169.98 K, x1 = 0.2384 | 436.4
169.99 K, x1 = 0.263 | 420.1
170.01 K, x1 = 0.2279 | 442.9
170.01 K, x1 = 0.3013 | 383.6
179.98 K, x1 = 0.1281 | 390.8
179.98 K, x1 = 0.1898 | 319

CC [ethane] + N#N
Settings | mass density [kg/m3]
149.97 K, x2 = 0.0702 | 558.2
169.87 K, x2 = 0.2041 | 544.8
169.91 K, x2 = 0.114 | 537.5
170 K, x2 = 0.036 | 525
209.93 K, x2 = 0.0236 | 479.7
210.04 K, x2 = 0.3352 | 482.6
249.66 K, x2 = 0.0761 | 416.5
249.98 K, x2 = 0.0518 | 414.7
250.03 K, x2 = 0.1483 | 407.9
269.91 K, x2 = 0.1969 | 350.5
269.94 K, x2 = 0.0305 | 378.2
269.97 K, x2 = 0.3581 | 284.6
270 K, x2 = 0.2503 | 332.5
270.01 K, x2 = 0.06 | 376.3
